We go through 13 compounds from patent US20250353848A1, “HETEROCYCLIC PAD4 INHIBITORS” (Celgene Corporation, priority 2022, published 2025).

Experiment [1] deals with T1, hPAD4 enzyme (Homo sapiens, UniProt Q9UM07). As to the kind of experiment: RFMS Assay 1 (rapid-fire mass spectrum PAD4 inhibition assay, BAEE substrate). The format is biochemical. Conditions: 5 nM hPAD4 enzyme, 250 μM BAEE, 30 mins compound and enzyme preincubation at 37° C., 90 min enzyme/substrate reaction. Put shortly:
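Human PAD4 (5 nM) preincubated 30 min at 37 °C with compound (top 50 μM, 0.5% DMSO), then 250 μM BAEE for 90 min at 37 °C in pH 7.5 HEPES with 50 μM calcium, 5 μM TPEN, 1 mM DTT. Product derivatized with phenyl glyoxal; citrulline product quantified by RapidFire MS/MS MRM, normalized to internal standard.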

For experiment [2], the target named is T1, hPAD4 enzyme. As to the kind of experiment: RFMS Assay 2 (rapid-fire mass spectrum PAD4 inhibition assay, peptide substrate). The format is biochemical. As to conditions: 35 nM recombinant human PAD4, substrate TSTGGRQGSHH, room temperature for 30 minutes; read-out: human PAD4 (hPAD4) IC50, RFMS Assay 2. Put shortly:
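Recombinant human PAD4 (35 nM) reacted 30 min at room temperature with 500 µM peptide TSTGGRQGSHH in pH 7.4 HEPES, 200 mM NaCl, 2 mM CaCl2, 5 mM DTT, 1.2% DMSO. Quenched with formic acid; substrate and citrullinated product quantified by RapidFire MRM mass spectrometry.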

Each structure is given as a SMILES string. Some results are limits rather than exact numbers.

T1 sequence (Q9UM07 whole entry): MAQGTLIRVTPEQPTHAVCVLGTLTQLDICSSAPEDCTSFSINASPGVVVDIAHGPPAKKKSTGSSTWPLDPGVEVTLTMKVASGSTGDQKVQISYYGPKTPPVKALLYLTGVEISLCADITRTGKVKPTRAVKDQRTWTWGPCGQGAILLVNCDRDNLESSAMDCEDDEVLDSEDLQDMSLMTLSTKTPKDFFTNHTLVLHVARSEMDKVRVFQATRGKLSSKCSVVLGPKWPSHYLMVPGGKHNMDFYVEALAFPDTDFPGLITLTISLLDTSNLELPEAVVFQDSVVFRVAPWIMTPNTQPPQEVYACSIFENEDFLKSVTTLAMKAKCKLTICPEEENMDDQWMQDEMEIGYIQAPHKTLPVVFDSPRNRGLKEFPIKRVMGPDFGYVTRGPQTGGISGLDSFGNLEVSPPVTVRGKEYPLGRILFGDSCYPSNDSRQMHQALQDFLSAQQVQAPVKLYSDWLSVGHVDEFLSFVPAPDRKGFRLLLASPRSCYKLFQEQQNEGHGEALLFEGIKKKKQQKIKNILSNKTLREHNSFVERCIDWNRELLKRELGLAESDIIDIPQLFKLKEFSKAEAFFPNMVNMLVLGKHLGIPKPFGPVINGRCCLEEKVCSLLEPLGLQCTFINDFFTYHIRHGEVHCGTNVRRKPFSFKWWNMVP

Regarding `Cn1c(-c2cc3ccnc(OC[C@@H]4CNC(=O)C4)c3n2CC2CC2)nc2cc3c(nc21)CCN(C[C@H](N)CF)C3=O` [Example 82, 7-((S)-2-amino-3-fluoropropyl)-2-(1-(cyclopropylmethyl)-7-(((S)-5-oxopyrrolidin-3-yl)methoxy)-1H-pyrrolo[2,3-c]pyridin-2-yl)-3-methyl-3,5,6,7-tetrahydro-8H-imidazo[4,5-b][1,6]naphthyridin-8-one], the IC50 on hPAD4 enzyme [1] and on hPAD4 enzyme [2] was 101 to 500 nM each time.
On to `COCC(=O)N1CCC(c2cccc3cc(-c4nc5cc6c(nc5n4C)CCN(C[C@H](N)CF)C6=O)n(CC4CC4)c23)CC1` [Example 30, (S)-7-(2-amino-3-fluoropropyl)-2-(1-(cyclopropylmethyl)-7-(1-(2-methoxyacetyl)piperidin-4-yl)-1H-indol-2-yl)-3-methyl-3,5,6,7-tetrahydro-8H-imidazo[4,5-b][1,6]naphthyridin-8-one], for which the values for the IC50 against hPAD4 enzyme [1] and at hPAD4 enzyme [2] were 11 to 100 nM and at most 10 nM, respectively.
With `Cn1c(-c2cc3cccc(OCCc4ccn[nH]4)c3n2CC2CC2)nc2cc3c(nc21)CCN(C[C@H](N)CF)C3=O` [Example 43, (S)-2-(7-(2-(1H-pyrazol-5-yl)ethoxy)-1-(cyclopropylmethyl)-1H-indol-2-yl)-7-(2-amino-3-fluoropropyl)-3-methyl-3,5,6,7-tetrahydro-8H-imidazo[4,5-b][1,6]naphthyridin-8-one], the figures for the IC50 at hPAD4 enzyme [1] and on hPAD4 enzyme [2] were at most 10 nM and 11 to 100 nM, respectively.
For `Cc1cn(CCOc2cccc3cc(-c4nc5cc6c(nc5n4C)CCN(C[C@H](N)CF)C6=O)n(CC4CC4)c23)cn1` [Example 72, (S)-7-(2-amino-3-fluoropropyl)-2-(1-(cyclopropylmethyl)-7-(2-(4-methyl-1H-imidazol-1-yl)ethoxy)-1H-indol-2-yl)-3-methyl-3,5,6,7-tetrahydro-8H-imidazo[4,5-b][1,6]naphthyridin-8-one], the IC50 lay within 11 to 100 nM at hPAD4 enzyme [1] and 101 to 500 nM on hPAD4 enzyme [2].
The corresponding values for `COc1cccc2cc(-c3nc4cc5c(nc4n3C)CCN(C[C@H](N)CF)C5=O)n(CC3(F)CC3)c12` [Example 15, (S)-7-(2-amino-3-fluoropropyl)-2-(1-((1-fluorocyclopropyl)methyl)-7-methoxy-1H-indol-2-yl)-3-methyl-3,5,6,7-tetrahydro-8H-imidazo[4,5-b][1,6]naphthyridin-8-one] are 11 to 100 nM and 101 to 500 nM.
With `Cn1c(-c2cc3cccnc3n2CC2CC2)nc2cc3c(nc21)CCN(C[C@H](N)CF)C3=O` [Example 19, (S)-7-(2-amino-3-fluoropropyl)-2-(1-(cyclopropylmethyl)-1H-pyrrolo[2,3-b]pyridin-2-yl)-3-methyl-3,5,6,7-tetrahydro-8H-imidazo[4,5-b][1,6]naphthyridin-8-one], the IC50 against hPAD4 enzyme [1] is 501 to 1000 nM; on hPAD4 enzyme [2] it was above 1000 nM.
Regarding `Cn1c(-c2cc3cccc(OCCc4cnoc4)c3n2CC2CC2)nc2cc3c(nc21)CCN(C[C@H](N)CF)C3=O` [Example 39, (S)-7-(2-amino-3-fluoropropyl)-2-(1-(cyclopropylmethyl)-7-(2-(isoxazol-4-yl)ethoxy)-1H-indol-2-yl)-3-methyl-3,5,6,7-tetrahydro-8H-imidazo[4,5-b][1,6]naphthyridin-8-one], the IC50 was at most 10 nM against hPAD4 enzyme [1] and 11 to 100 nM at hPAD4 enzyme [2].
Turning to `Cn1c(-c2cc3cccc(OC(F)Cn4cncc4F)c3n2CC2CC2)nc2cc3c(nc21)CCN(C[C@H](N)CF)C3=O` (single isomer, unassigned) [Example 75b], the IC50 against hPAD4 enzyme [1] was at most 10 nM; at hPAD4 enzyme [2] it was 11 to 100 nM.
For the compound `COc1c(F)ccc2cc(-c3nc4cc5c(nc4n3C)CCN(C[C@H](N)CF)C5=O)n(Cc3ccno3)c12` [Example 23, (S)-7-(2-amino-3-fluoropropyl)-2-(6-fluoro-1-(isoxazol-5-ylmethyl)-7-methoxy-1H-indol-2-yl)-3-methyl-3,5,6,7-tetrahydro-8H-imidazo[4,5-b][1,6]naphthyridin-8-one], the IC50 at hPAD4 enzyme [1] was 11 to 100 nM; on hPAD4 enzyme [2] it was 501 to 1000 nM.
Consider `COc1cccc2cc(-c3nc4cc5c(nc4n3C)CCN(C[C@H](N)CF)C5=O)n(CC3CC3)c12` [Example 1, (S)-7-(2-amino-3-fluoropropyl)-2-(1-(cyclopropylmethyl)-7-methoxy-1H-indol-2-yl)-3-methyl-3,5,6,7-tetrahydro-8H-imidazo[4,5-b][1,6]naphthyridin-8-one], for which the figures for the IC50 against hPAD4 enzyme [1] and on hPAD4 enzyme [2] were 101 to 500 nM and 501 to 1000 nM, respectively.
Regarding `Cn1c(-c2cc3cccc(OC(F)Cn4cncc4F)c3n2CC2CC2)nc2cc3c(nc21)CCN(C[C@H](N)CF)C3=O` (single isomer, unassigned) [Example 75a], the figures for the IC50 on hPAD4 enzyme [1] and at hPAD4 enzyme [2] were at most 10 nM and 11 to 100 nM, respectively.
As for `Cn1c(-c2cc3cccc(OC(F)Cn4ccnc4)c3n2CC2CC2)nc2cc3c(nc21)CCN(C[C@H](N)CF)C3=O` (single isomer, unassigned) [Example 74b], the IC50 is at most 10 nM at hPAD4 enzyme [1] and 11 to 100 nM at hPAD4 enzyme [2].
The corresponding values for `Cn1c(-c2cc3cccc(OC[C@@H]4CNC(=O)C4)c3n2CC2CC2)nc2cc3c(nc21)CCN(C[C@H](N)CF)C3=O` [Example 59, 7-((S)-2-amino-3-fluoropropyl)-2-(1-(cyclopropylmethyl)-7-(((S)-5-oxopyrrolidin-3-yl)methoxy)-1H-indol-2-yl)-3-methyl-3,5,6,7-tetrahydro-8H-imidazo[4,5-b][1,6]naphthyridin-8-one] are 11 to 100 nM and 11 to 100 nM.

What is called IC50 is the concentration that inhibits the measured activity by half.
